For 27 molecules, EC50 results are on record in US20220213061A9, “HETEROCYCLIC COMPOUNDS FOR MODULATING NR2F6” (TES Pharma S.r.l., priority 2020, published 2022).

Counter-ions that a name gives are not always drawn. Bounds are passed on as bounds.

This test deals with T1, recombinant human NR2F6 protein (Homo sapiens, UniProt P10588).
T1 sequence (P10588 1-404): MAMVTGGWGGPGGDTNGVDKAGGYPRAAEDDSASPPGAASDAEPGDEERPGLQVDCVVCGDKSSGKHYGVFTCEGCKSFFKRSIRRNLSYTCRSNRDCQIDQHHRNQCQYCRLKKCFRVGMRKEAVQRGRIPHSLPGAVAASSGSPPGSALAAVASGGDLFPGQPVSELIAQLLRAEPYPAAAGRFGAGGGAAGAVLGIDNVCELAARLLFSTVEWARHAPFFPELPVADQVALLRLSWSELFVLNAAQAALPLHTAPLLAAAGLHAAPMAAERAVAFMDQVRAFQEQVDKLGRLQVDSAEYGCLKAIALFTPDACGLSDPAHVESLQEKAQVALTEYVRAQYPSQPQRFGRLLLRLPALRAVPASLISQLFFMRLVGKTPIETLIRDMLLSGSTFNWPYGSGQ
The test is described as follows: Biochemical NR2F6 binding assay (EnSpire label-free). As to conditions: label-free binding to immobilized purified recombinant human NR2F6; ligands 1 nM to 100 uM, 1% DMSO. How it is done: Purified recombinant human NR2F6 protein was dissolved in immobilization buffer at pH 4.5 and then immobilized in EnSpire-LFB High-Sensitivity User-Activated Plates at the concentration of 50 μg/well plate and left in incubation for 16 h at 4° C. Wells with only immobilization buffer were used as negative control to check the protein coating efficiency. NR2F6 ligands were resuspended in DMSO at the concentration of 10 mM, then dispensed into a plate containing assay buffer at concentrations ranging from 1 nM to 100 uM using an HP-dispenser. DMSO was normalized at the 1% of volume of each well. The final readings were taken over a period of 30 minutes. The label-free responses were measured as shifts in reflected wavelength and are expressed in picometers (pm). Results were analyzed using the EnSpire label-free user interface software, and EC50 and graphs were generated using GraphPad PRISM software. In the tables below, A is <1 μM; B is 1 to 10 μM; C is 10 to 50 μM; and D is >50 μM.

In the case of `O=C(Nc1cccc2ccccc12)[C@@H]1CNC[C@H]1c1ccc(C(F)(F)F)cc1` [Compound I-110, (3S,4R)—N-(Naphthalen-1-yl)-4-[4-(trifluoromethyl)phenyl]pyrrolidine-3-carboxamide hydrochloride], the EC50 (in general, the concentration that produces a half-maximal response) lay within 1 to 10 µM. Turning to `O=S(=O)(N[C@@H]1CNC[C@H]1c1ccccc1)c1cccc2cnccc12` (racemic) [Compound I-8, (±)-trans-N-(4-Phenylpyrrolidin-3-yl)isoquinoline-5-sulfonamide], the EC50 is above 50 µM. In the case of `O=C(Nc1cccc(Oc2ccc(C(F)(F)F)nc2)c1)[C@H]1CNC[C@@H]1c1ccccc1` (racemic) [Compound I-104, (±)-trans-4-Phenyl-N-(3-{[6-(trifluoromethyl)pyridin-3-yl]oxy}phenyl) pyrrolidine-3-carboxamide dihydrochloride] it was below 1 µM. For `O=C(Nc1cccc2cnccc12)C1=C(c2ccccc2)CNC1` [Compound I-1, N-(Isoquinolin-5-yl)-4-phenyl-2,5-dihydro-1H-pyrrole-3-carboxamide], the EC50 was in the range of 10 to 50 µM. In the case of `O=C(NC1CCN(c2ccccc2)CC1)[C@@H]1CNC[C@H]1c1ccccc1` [Compound I-123, (3S,4R)-3-[(l-Phenylpiperidin-4-yl)carbamoyl]-4-phenylpyrrolidine dihydrochloride] it was 1 to 10 µM; in that of `O=C(Nc1cccc(-c2cccnc2)c1)[C@@H]1CNC[C@H]1c1cccs1` (racemic) [Compound I-49, (±)-trans-N-[3-(Pyridin-3-yl)phenyl]-4-(thiophen-2-yl)pyrrolidine-3-carboxamide dihydrochloride], above 50 µM. For `O=C(N[C@@H]1CNC[C@H]1c1ccccc1)c1cccc2cnccc12` (racemic) [Compound I-9, (±)-trans-N-(4-Phenylpyrrolidin-3-yl)isoquinoline-5-carboxamide] the value was 1 to 10 µM. As for `O=C(Nc1cccc(Oc2ccncc2)c1)[C@H]1CNC[C@@H]1c1ccccc1` (racemic) [Compound I-98, (±)-trans-4-Phenyl-N-[3-(pyridin-4-yloxy)phenyl]pyrrolidine-3-carboxamide dihydrochloride], the EC50 is above 50 µM. For `O=C(Nc1ncc(-c2cccnc2)s1)[C@@H]1CNC[C@H]1c1ccccc1` (racemic) [Compound I-20, (±)-trans-4-Phenyl-N-[5-(pyridin-3-yl)-1,3-thiazol-2-yl]pyrrolidine-3-carboxamide] the value was 1 to 10 µM.

With `O=C(Nc1cc2ccccc2cn1)[C@@H]1CNC[C@H]1c1ccccc1` [Compound I-43, (3S,4R)—N-(Isoquinolin-3-yl)-4-phenylpyrrolidine-3-carboxamide dihydrochloride], the 50% effective concentration (EC50) fell in the range of 1 to 10 µM. In the case of `Cc1nccc2c(NC(=O)[C@H]3CNC[C@@H]3c3ccccc3)cccc12` [Compound I-30, (3R,4S)—N-(1-Methylisoquinolin-5-yl)-4-phenylpyrrolidine-3-carboxamide dihydrochloride] it was below 1 µM; in that of `O=C(Nc1cccc2cnccc12)[C@@H]1CNC[C@@H]1c1ccccc1` [Compound I-66, (3S,4S)—N-(Isoquinolin-5-yl)-4-phenylpyrrolidine-3-carboxamide dihydrochloride], above 50 µM. In the case of `Cn1ccc2c(NC(=O)[C@H]3CNC[C@@H]3c3ccccc3)cccc2c1=O` [Compound I-84, (3R,4S)—N-(2-Methyl-1-oxo-1,2-dihydroisoquinolin-5-yl)-4-phenylpyrrolidine-3-carboxamide hydrochloride] it was above 50 µM; in that of `O=C(NCc1cccc2cnccc12)[C@H]1CNC[C@@H]1c1ccccc1` [Compound I-67, (3R,4S)—N-(Isoquinolin-5-ylmethyl)-4-phenylpyrrolidine-3-carboxamide dihydrochloride], above 50 µM. For `N#Cc1ccc(Oc2cccc(NC(=O)[C@H]3CNC[C@@H]3c3ccccc3)c2)cc1` (racemic) [Compound I-90, (±)-trans-N-[3-(4-Cyanophenoxy)phenyl]-4-phenylpyrrolidine-3-carboxamide hydrochloride], the half-maximal effective concentration (EC50) was below 1 µM. In the case of `COc1ccc([C@@H]2CNC[C@H]2C(=O)Nc2cccc(-c3ccccc3)c2)cc1` (racemic) [Compound I-45, (±)-trans-N-(Biphenyl-3-yl)-4-(4-methoxyphenyl)pyrrolidine-3-carboxamide hydrochloride] it was above 50 µM; in that of `CN(C(=O)[C@H]1CNC[C@@H]1c1ccccc1)c1cccc2cnccc12` [Compound I-57, (3R,4S)—N-(Isoquinolin-5-yl)-N-methyl-4-phenylpyrrolidine-3-carboxamide dihydrochloride], above 50 µM. In the case of `O=C(Nc1cccc2cccnc12)[C@@H]1CNC[C@H]1c1ccccc1` (racemic) [Compound I-18, (±)-trans-4-Phenyl-N-(quinolin-8-yl)pyrrolidine-3-carboxamide dihydrochloride] it was 10 to 50 µM; in that of `O=C(Nc1ccccc1Oc1cccnc1)[C@H]1CNC[C@@H]1c1ccccc1` (racemic) [Compound I-68, (±)-trans-4-Phenyl-N-[2-(pyridin-3-yloxy)phenyl]pyrrolidine-3-carboxamide dihydrochloride], 1 to 10 µM; in that of `O=C(Nc1cccc(Cc2ccccc2)c1)[C@@H]1CNC[C@H]1c1ccccc1` (racemic) [Compound I-85, (±)-trans-N-(3-Benzylphenyl)-4-phenylpyrrolidine-3-carboxamide hydrochloride], 1 to 10 µM.

Regarding `O=C(Nc1cccc2ccccc12)[C@H]1CNC[C@@H]1c1ccc(C(F)(F)F)cc1` [Compound I-109, (3R,4S)—N-(Naphthalen-1-yl)-4-[4-(trifluoromethyl)phenyl]pyrrolidine-3-carboxamide hydrochloride], the EC50 is 1 to 10 µM. For `CN1CCC(CNC(=O)[C@H]2CNC[C@@H]2c2ccccc2)CC1` [Compound I-35, (3R,4S)—N-[(1-Methylpiperidin-4-yl)methyl]-4-phenylpyrrolidine-3-carboxamide dihydrochloride] the value was above 50 µM; for `CN(C(=O)[C@@H]1CNC[C@H]1c1ccccc1)c1cccc(-c2cccnc2)c1` (racemic) [Compound I-47, (±)-trans-N-Methyl-4-phenyl-N-[3-(pyridin-3-yl)phenyl]pyrrolidine-3-carboxamide], above 50 µM.

Turning to `O=C(Nc1cccc(Oc2ccccc2)c1)[C@H]1CNC[C@@H]1c1ccccc1` (racemic) [Compound I-69, (±)-trans-N-(3-Phenoxyphenyl)-4-phenylpyrrolidine-3-carboxamide hydrochloride], the EC50 was below 1 µM. For `O=C(N[C@H]1C[C@H](Oc2ccc(F)cc2)C1)[C@H]1CNC[C@@H]1c1ccccc1` (racemic) [Compound I-91, (±)-trans-N-[trans-3-(4-Fluorophenoxy)cyclobutyl]-4-phenylpyrrolidine-3-carboxamide hydrochloride] the value was 1 to 10 µM; for `O=C(Nc1ccc(-c2cccnc2)cc1)[C@H]1CNC[C@@H]1c1ccccc1` [Compound I-39, (3R,4S)-4-Phenyl-N-[4-(pyridin-3-yl)phenyl]pyrrolidine-3-carboxamide dihydrochloride], above 50 µM. In the case of `O=C(Nc1cccc(-c2cccnc2)c1)[C@@H]1CNC[C@H]1c1ccccc1` (racemic) [Compound I-11, (±)-trans-4-Phenyl-N-[3-(pyridin-3-yl)phenyl]pyrrolidine-3-carboxamide] it was 1 to 10 µM.
